Experimental data from patent publication US6632829B2, “Sulfonamides and derivatives thereof that modulate the activity of endothelin” (Texas Biotechnology Corp., priority 1996, dated 2003).
pIC50: −log10 of the molar value. Several values for one entry are separate records, joined by “and”; a condition that tells them apart may be missing. Equal values may be shown once. Where a name gives a salt, the structure may show the parent alone.

Biological target: T1, human ETB receptor (Homo sapiens, UniProt P24530)
T1 construct: expressed in transfected cells; host or cells: COS7 cells
T1 sequence (P24530 27-442): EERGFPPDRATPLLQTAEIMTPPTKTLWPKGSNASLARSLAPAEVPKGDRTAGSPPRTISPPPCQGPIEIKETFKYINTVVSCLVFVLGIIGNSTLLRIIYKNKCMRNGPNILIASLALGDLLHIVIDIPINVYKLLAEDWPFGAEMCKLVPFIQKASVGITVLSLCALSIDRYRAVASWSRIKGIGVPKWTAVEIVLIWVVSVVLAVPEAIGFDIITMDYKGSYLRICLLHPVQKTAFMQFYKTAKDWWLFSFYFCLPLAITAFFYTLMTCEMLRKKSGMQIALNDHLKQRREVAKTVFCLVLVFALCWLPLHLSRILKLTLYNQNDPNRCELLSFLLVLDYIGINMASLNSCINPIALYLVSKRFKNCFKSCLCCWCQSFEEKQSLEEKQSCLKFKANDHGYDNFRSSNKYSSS
Test: Endothelin binding inhibition, Binding Test #2: competition with 125I-ET-1 for ETB receptors on transfected COS7 cell membranes
Conditions: incubation at 24° C. (values marked †)
From the text: Compounds that are potential endothelin antagonists are identified by testing their ability to compete with ^125I-labeled ET-1 for binding to human ETA receptors or ETB receptors present on isolated cell membranes. The effectiveness of the test compound as an antagonist or agonist of the biological tissue response of endothelin can also be assessed by measuring the effect on endothelin induced contraction of isolated rat thoracic aortic rings. The ability of the compounds to act as antagonists or agonists for ETB receptors can be assess by testing the ability of the compounds are to inhibit endothelin-1 induced prostacyclin release from cultured bovine aortic endothelial cells.
COS7 cells were transfected with DNA encoding the ETB receptor, The resulting cells, which express the human ETB receptor, were grown to confluence in T-150 flasks. Membrane was prepared as described above. The binding assay was performed as described above using the membrane preparation diluted with binding buffer to a concentration of 1 μg/50 μL.
(§1) Briefly, the COS7 cells, described above, that had been transfected with DNA encoding the ETB receptor and express the human ETB receptor on their surfaces were grown to confluence in T-175 flasks. Cells from multiple flasks were collected by scraping, pooled and centrifuged for 10 min at 190×g. The cells were resuspended in phosphate buffered saline (PBS) containing 10 mM EDTA using a Tenbroeck homogenizer. The suspension was centrifuged at 4° C. 57,800×g for 15 min, the pellet was resuspended in 5 mL of buffer A (5 mM HEPES buffer, pH 7.4 containing aprotinin (100 KIU/mL)) and then frozen and thawed once. Five mL of Buffer B (5 mM HEPES Buffer, pH 7.4 containing 10 mM MnCl2 and 0.001% deoxyribonuclease Type 1) was added, the suspension mixed by inversion and then incubated at 37° C. for 30 minutes. The mixture was centrifuged at 57,800×g as described above, the pellet washed twice with buffer A and then resuspended in buffer C (30 mM HEPES buffer, pH 7.4 containing aprotinin (100 KIU/mL) to give a final protein concentration of 2 mg/mL.
The binding assay was performed as described above using the membrane preparation diluted to give 1 μg/50 μL of binding buffer.

Compound	pIC50
Cc1ccc(CC(=O)c2sccc2S(=O)(=O)Nc2onc(C)c2Br)cc1 [N-(4-bromo-3-methyl-5-isoxazolyl)-2-[(4-methylphenyl)acetyl]thiophene-3-sulfonamide]	5.04
Cc1cc2c(cc1C=CCc1sccc1S(=O)(=O)Nc1onc(C)c1Br)OCO2 [N-(4-bromo-3-methyl-5-isoxazolyl)-2-[2-methyl-4,5-(methylenedioxy)cinnamyl]thiophene-3-sulfonamide]	5.48
CC(=O)c1cc2c(cc1NC(=O)c1sccc1S(=O)(=O)Nc1onc(C)c1Cl)OCO2 [N-(4-chloro-3-methyl-5-isoxazolyl)2-{[2-acetyl-4,5-(methylenedioxy)phenyl]aminocarbonyl}thiophene-3-sulfonamide]	4.50
Cc1noc(NS(=O)(=O)c2ccsc2C(=O)c2ccc3c(c2)OCO3)c1Br [N-(4-bromo-3-methyl-5-isoxazolyl)-2-[(3,4-methylenedioxy)benzoyl]thiophene-3-sulfonamide]	4.82
Cc1cc(C)c(NC(=O)c2sccc2S(=O)(=O)Nc2onc(C)c2Cl)c(C(N)=O)c1 [N-(4-chloro-3-methyl-5-isoxazolyl)-2-(2-carbamoyl-4,6-dimethylphenylaminocarbonyl)thiophene-3-sulfonamide]	4.93
Cc1ccc(OC(=O)c2sccc2S(=O)(=O)Nc2onc(C)c2Br)cc1 [N-(4-bromo-3-methyl-5-isoxazolyl)-2-[(4-methylphenoxy)carbonyl]thiophene-3-sulfonamide]	5.01

Other lines, results leading:

pIC50	Compound
5.42	Cc1cc(C)c(CC(=O)c2sccc2S(=O)(=O)Nc2onc(C)c2Cl)c(C)c1 [N-(4-chloro-3-methyl-5-isoxazolyl)-2-(2,4,6-trimethylphenylacetyl)thiophene-3-sulfonamide]
5.35	Cc1ccc(OCc2sccc2S(=O)(=O)Nc2onc(C)c2Br)c(C)c1 [N-(4-bromo-3-methyl-5-isoxazolyl)-2-[(2,4-dimethylphenoxy)methyl]thiophene-3-sulfonamide]
5.53	Cc1ccc(C=CCc2ccsc2S(=O)(=O)Nc2onc(C)c2Br)c(C)c1 [N-(4-bromo-3-methyl-5-isoxazolyl)-3-(2,4-dimethylcinnamyl)thiophene-2-sulfonamide]
< 4.30	Cc1noc(NS(=O)(=O)c2ccsc2C(=O)Oc2ccc3c(c2)OCO3)c1C [N-(3,4-dimethyl-5-isoxazolyl)-2-[3,4-(methylenedioxy)phenoxycarbonyl]thiophene-3-sulfonamide]
4.16	Cc1cc(C)c(CNC(=O)c2sccc2S(=O)(=O)Nc2onc(C)c2Cl)c(C)c1 [N-(4-chloro-3-methyl-5-isoxazolyl)-2-(2,4,6-trimethylbenzylaminocarbonyl)thiophene-3-sulfonamide]
5.18	Cc1noc(NS(=O)(=O)c2ccsc2COc2ccc3c(c2)OCO3)c1Br [N-(4-bromo-3-methyl-5-isoxazolyl)-2-{[3,4-(methylenedioxy)phenoxy]methyl}thiophene-3-sulfonamide]

Biological target: T2, human ETA receptors (Homo sapiens, UniProt P25101)
T2 construct: endogenous in cells; host or cells: TE 671 cells (ATCC HTB 139), membrane preparation
T2 sequence (P25101 21-427): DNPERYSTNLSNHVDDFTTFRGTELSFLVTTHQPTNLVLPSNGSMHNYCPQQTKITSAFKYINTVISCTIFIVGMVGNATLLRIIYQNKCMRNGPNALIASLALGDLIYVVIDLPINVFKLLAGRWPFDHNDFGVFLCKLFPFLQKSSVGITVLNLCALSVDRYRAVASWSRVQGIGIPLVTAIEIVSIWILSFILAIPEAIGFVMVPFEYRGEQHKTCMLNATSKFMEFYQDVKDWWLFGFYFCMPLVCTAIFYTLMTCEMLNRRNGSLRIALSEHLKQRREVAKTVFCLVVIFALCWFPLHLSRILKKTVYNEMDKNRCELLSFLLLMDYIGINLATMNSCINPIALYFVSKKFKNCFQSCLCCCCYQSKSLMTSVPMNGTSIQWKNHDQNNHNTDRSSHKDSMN
Test: Endothelin binding inhibition, Binding Test #1: competition with 125I-ET-1 for ETA receptors on TE 671 cell membranes
Conditions: incubation at 24° C. (values marked †)
Protocol: as §1, with “Cells from” for “Briefly, the COS7 cells, described above, that had been transfected with DNA encoding the ETB receptor and express the human ETB receptor on their surfaces were grown to confluence in T-175 flasks. Cells from”, “4° C. at 57,800×g for” for “4° C. 57,800×g for”, “thawed once. 5 mL of” for “thawed once. Five mL of”, “of 2 mg/mL and stored at −70° C. until use.” for “of 2 mg/mL.”
The membrane suspension (50 μL), containing up to 8 μg of membrane protein, was added to each of (A), (B), or (C). […] Alternatively, the incubation was conducted at 24° C.
The supernatant, containing unbound radioactivity, was decanted and the pellet counted on a Genesys multiwell gamma counter. The degree of inhibition of binding (D) was calculated according to the following equation: [formula]
Each test was generally performed in triplicate.

Compound	pIC50
Cc1ccc(CC(=O)c2sccc2S(=O)(=O)Nc2onc(C)c2Br)cc1 [N-(4-bromo-3-methyl-5-isoxazolyl)-2-[(4-methylphenyl)acetyl]thiophene-3-sulfonamide]	6.70
Cc1cc2c(cc1C=CCc1sccc1S(=O)(=O)Nc1onc(C)c1Br)OCO2 [N-(4-bromo-3-methyl-5-isoxazolyl)-2-[2-methyl-4,5-(methylenedioxy)cinnamyl]thiophene-3-sulfonamide]	7.09
Cc1noc(NS(=O)(=O)c2ccsc2CCc2ccc3c(c2)OCO3)c1Br [N-(4-bromo-3-methyl-5-isoxazolyl)-2-[(3,4-methylenedioxy)phenethyl]thiophene-3-sulfonamide]	6.68
CC(=O)c1cc2c(cc1NC(=O)c1sccc1S(=O)(=O)Nc1onc(C)c1C)OCO2 [N-(3,4-dimethyl-5-isoxazolyl)-2-{[2-acetyl-4,5-(methylenedioxy)phenyl]aminocarbonyl}thiophene-3-sulfonamide]	7.49
COC(=O)c1cc(OC)c(OC)cc1NC(=O)c1sccc1S(=O)(=O)Nc1onc(C)c1Cl [N-(4-chloro-3-methyl-5-isoxazolyl)-2-[(4,5-dimethoxy-2-methoxycarbonylphenyl)aminocarbonyl]thiophene-3-sulfonamide]	6.26
Cc1ccc(NC(=O)c2sccc2S(=O)(=O)Nc2onc(C)c2Cl)c(O)c1 [N-(4-chloro-3-methyl-5-isoxazolyl)-2-[2-hydroxy-4-methylphenyl)aminocarbonyl]thiophene-3-sulfonamide]	8.22
COc1ccc(OC(=O)c2sccc2S(=O)(=O)Nc2onc(C)c2C)cc1 [N-(3,4-dimethyl-5-isoxazolyl)-2-[(4-methoxylphenoxy)carbonyl]thiophene-3-sulfonamide]	5.23 and 5.60
Cc1noc(NS(=O)(=O)c2ccsc2C(N)=O)c1Br [N-(4-bromo-3-methyl-5-isoxazolyl)-2-(aminocarbonyl)thiophene-3-sulfonamide]	6.08
Cc1nnc(NC(=O)c2sccc2S(=O)(=O)Nc2onc(C)c2Cl)s1 [N-(4-chloro-3-methyl-5-isoxazolyl)-2-[(2-methyl-1,3,4-thiadiazol-5-yl)aminocarbonyl]thiophene-3-sulfonamide]	6.89
Cc1noc(NS(=O)(=O)c2ccsc2C(=O)Nc2cc3c(cc2C(=O)O)OCO3)c1Cl [N-(4-chloro-3-methyl-5-isoxazolyl)2-{[2-carboxyl-4,5-(methylenedioxy)phenyl]aminocarbonyl}thiophene-3-sulfonamide]	5.84

Results, then the molecule that gave them:

pIC50	Compound
9.62	Cc1cc(C)c(CC(=O)c2sccc2S(=O)(=O)Nc2onc(C)c2Cl)c(C)c1 [N-(4-chloro-3-methyl-5-isoxazolyl)-2-(2,4,6-trimethylphenylacetyl)thiophene-3-sulfonamide]
6.51	Cc1ccc(OCc2sccc2S(=O)(=O)Nc2onc(C)c2Br)c(C)c1 [N-(4-bromo-3-methyl-5-isoxazolyl)-2-[(2,4-dimethylphenoxy)methyl]thiophene-3-sulfonamide]
6.74	Cc1ccc(C=CCc2ccsc2S(=O)(=O)Nc2onc(C)c2Br)c(C)c1 [N-(4-bromo-3-methyl-5-isoxazolyl)-3-(2,4-dimethylcinnamyl)thiophene-2-sulfonamide]
5.86	Cc1noc(NS(=O)(=O)c2ccsc2C(=O)OC2CCOCC2)c1Cl [N-(4-chloro-3-methyl-5-isoxazolyl)-2-[(4-oxacyclohexyl)oxycarbonyl]thiophene-3-sulfonamide]
7.87	Cc1cc(C)c(NC(=O)c2sccc2S(=O)(=O)Nc2onc(C)c2Cl)c(C)c1CN(C)C [N-(4-chloro-3-methyl-5-isoxazolyl)-2-(3-dimethylaminomethyl-2,4,6-trimethylphenylaminocarbonyl)thiophene-3-sulfonamide, trifluoroacetic acid salt]
6.48	COc1cccc(-c2ccsc2S(=O)(=O)Nc2onc(C)c2Br)c1 [N-(4-bromo-3-methyl-5-isoxazolyl)-3-(3-methoxyphenyl)thiophene-2-sulfonamide]
7.09	Cc1cc2c(cc1C(CC(=O)O)C(=O)c1sccc1S(=O)(=O)Nc1onc(C)c1Cl)OCO2 (stereo not drawn) [N-(4-chloro-3-methyl-5-isoxazolyl)-2-(α-carboxylmethyl-2-methyl-4,5-(methylenedioxy)phenylacetyl)thiophene-3-sulfonamide]
7.07	Cc1cc2c(cc1C(C)C(=O)c1sccc1S(=O)(=O)Nc1onc(C)c1Cl)OCO2 (stereo not drawn) [N-(4-chloro-3-methyl-5-isoxazolyl)-2-(α-methyl-2-methyl-4,5-(methylenedioxy)phenylacetyl)thiophene-3-sulfonamide]
